The text below walks through data of patent EP0929544B1, “TRICYCLIC ANTITUMOR COMPOUNDS BEING FARNESYL PROTEIN TRANSFERASE INHIBITORS” (SCHERING CORPORATION, priority 1996, dated 1998).

For one assay, the target named is T1, Farnesyl protein transferase (FPT) (Rattus norvegicus, UniProt Q02293+Q04631).
T1 construct: Farnesyl protein transferase (FPT) was partially purified from rat brain; from tissue; host or cells: rat brain
T1 sequence (Q02293 whole entry, one chain of several): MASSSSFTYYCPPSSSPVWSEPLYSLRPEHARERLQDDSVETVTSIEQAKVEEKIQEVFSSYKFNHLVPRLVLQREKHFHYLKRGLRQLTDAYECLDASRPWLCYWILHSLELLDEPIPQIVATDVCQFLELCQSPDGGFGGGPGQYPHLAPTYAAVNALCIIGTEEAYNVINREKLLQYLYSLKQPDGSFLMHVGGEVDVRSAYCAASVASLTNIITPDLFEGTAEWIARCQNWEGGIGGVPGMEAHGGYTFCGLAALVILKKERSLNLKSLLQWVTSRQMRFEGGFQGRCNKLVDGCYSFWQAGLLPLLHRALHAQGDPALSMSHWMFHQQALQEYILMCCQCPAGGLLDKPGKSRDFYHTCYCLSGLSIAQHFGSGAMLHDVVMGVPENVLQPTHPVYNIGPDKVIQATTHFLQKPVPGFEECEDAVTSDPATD
Kind of assay: In vitro enzyme assay: inhibition of farnesyl protein transferase (transfer of [3H]farnesyl from [3H]farnesyl pyrophosphate to Ras-CVLS). In kind it is biochemical.
Conditions: not given
The source says:
1. In vitro enzyme assays: Inhibition of farnesyl protein transferase and geranylgeranyl protein transferase.
Farnesyl protein transferase (FPT) was partially purified from rat brain by ammonium sulfate fractionation followed by Q-Sepharose (Pharmacia, Inc.) anion exchange chromatography essentially as described by Yokoyama et al (Yokoyama, K., et al., (1991), A protein geranylgeranyltransferase from bovine brain: Implications for protein prenylation specificity, Proc. Natl. Acad. Sci USA 88: 5302-5306, the disclosure of which is incorporated herein by reference thereto). Human famesyl protein transferase was also expressed in E. coli, using cDNA clones encoding both the a and b subunits. The methods used were similar to those published (Omer, C. et al., (1993), Characterization of recombinant human farnesyl protein transferase: Cloning, expression, famesyl diphosphate binding, and functional homology with yeast prenyl-protein transferases, Biochemistry 32:5167-5176). Human famesyl protein transferase was partially-purified from the soluble protein fraction of E. coli as described above. […] Two forms of val^12-Ha-Ras protein were prepared as substrates for these enzymes, differing in their carboxy terminal sequence. One form terminated in cysteine-valine-leucine-serine (Ras-CVLS) the other in cystein-valine-leucine-leucine (Ras-CVLL). Ras-CVLS is a substrate for the famesyl protein transferase while Ras-CVLL is a substrate for geranylgeranyl protein transferase I. The cDNAs encoding these proteins were constructed so that the proteins contain an amino-terminal extension of 6 histidine residues. Both proteins were expressed in Escherichia coli and purified using metal chelate affinity chromatography. The radiolabelled isoprenyl pyrophosphate substrates, [^3H]farnesyl pyrophosphate and [^3H]geranylgeranyl pyrophosphate, were purchased from DuPont/New England Nuclear.
Several methods for measuring famesyl protein transferase activity have been described (Reiss et al 1990, Cell 62: 81; Schaber et al 1990, J. Biol. Chem. 265: 14701; Manne et al 1990, PNAS 87: 7541; and Barbacid & Manne 1993, U.S. Patent No. 5,185,248). […] The reaction was allowed to proceed for 30 minutes at room temperature and then stopped with 0.5 ml of 4% sodium dodecyl sulfate (SDS) followed by 0.5 ml of cold 30% TCA. Samples were allowed to sit on ice for 45 minutes and precipitated Ras protein was then collected on GF/C filter paper mats using a Brandel cell harvester. Filter mats were washed once with 6% TCA, 2% SDS and radioactivity was measured in a Wallac 1204 Betaplate BS liquid scintillation counter. Percent inhibition was calculated relative to the DMSO vehicle control.
For orientation: IC50 means the point on the concentration scale where inhibition reaches its midpoint. Consider `CN(C)CCCC(=O)N1CCC(C2c3ncc(Br)cc3CCc3cc(Cl)cc(Cl)c32)CC1` (single isomer, unassigned) [Example 6], for which the IC50 turned out to be 6.5 nM.

Staying with this assay, now noted: @ 0.06 µg/µL.
For the compound `O=C(CCCC(=O)N1CCC(C2c3ncc(Br)cc3CCc3cc(Cl)cc(Cl)c32)CC1)Nc1ccccc1` (single isomer, unassigned) [Example 19], the “FPT inhibition (percent inhibition)” value came out at 21%@ 0.06 µg/µL. Still for that read-out and setting: in the case of `O=C(CCCC(=O)N1CCC(C2c3ncc(Br)cc3CCc3cc(Cl)cc(Cl)c32)CC1)NCc1ccccc1` (single isomer, unassigned) [Example 21] it was 35%@ 0.06 µg/µL; in that of `O=C(NCCCCC(=O)N1CCC(C2c3ncc(Br)cc3CCc3cc(Cl)cc(Cl)c32)CC1)c1ccccc1` (single isomer, unassigned) [Example 22], 41%@ 0.06 µg/µL; in that of `O=C(NCCCC(=O)N1CCC(C2c3ncc(Br)cc3CCc3cc(Cl)cc(Cl)c32)CC1)c1ccncc1` (single isomer, unassigned) [Example 24], 20 %@ 0.06 µg/µL.

Still in this assay, the particulars now being: @ 88 nM; read-out: FPT inhibition (percent inhibition).
The inhibition is how much of the control response was suppressed. With `O=C(CCCN1C(=O)c2ccccc2C1=O)N1CCC(C2c3ncc(Br)cc3CCc3cc(Cl)cc(Br)c32)CC1` (single isomer, unassigned; (+)) [Example 32, (+)-4-(3,10-DIBROMO-8-CHLORO-6,11-DIHYDRO-5H-BENZO[5,6]CYCLO-HEPTA[1,2-b]PYRIDIN-11-YL)-1-[4-(1,3-DIHYDRO-1,3-DIOXO-2H-ISOINDOL-2-YL)-1-OXOBUTYL)PIPERIDINE], the inhibition at 0.088 µM was 12%.

Still in this assay, the particulars now being: @ 92 nM; read-out: FPT inhibition (percent inhibition).
`O=C(CCCC(=O)N1CCC(C2c3ncc(Br)cc3CCc3cc(Cl)cc(Cl)c32)CC1)Nc1ccc(Cl)cc1` (single isomer, unassigned) [Example 20]: the inhibition at 0.092 µM worked out at 0%.

Still in this assay, the particulars now being: @ 110 nM; read-out: FPT inhibition (percent inhibition).
Regarding `CS(=O)(=O)NCC(=O)N1CCC(C2c3ncc(Br)cc3CCc3cc(Cl)cc(Cl)c32)CC1` (single isomer, unassigned; (+)) [Example 28], the inhibition at 0.11 µM is 43%. Same read-out and setting: in the case of `NC(=O)NCC(=O)N1CCC(C2c3ncc(Br)cc3CCc3cc(Cl)cc(Cl)c32)CC1` (single isomer, unassigned; (+)) [Example 30] it was 36%.

Still in this assay, the particulars now being: @ 330nM; read-out: FPT inhibition (percent inhibition).
Take `CC(C)(C)OC(=O)NCCCC(=O)N1CCC(C2c3ncc(Br)cc3CCc3cc(Cl)cc(Cl)c32)CC1` (single isomer, unassigned) [Example 25]: the inhibition at 0.33 µM turned out to be 47%.

Still in this assay, the particulars now being: FPT INHIBITION; read-out: FPT IC50.
For `CN(C)CC(=O)N1CCC(C2c3ncc(Br)cc3CCc3cc(Cl)cc(Cl)c32)CC1` (single isomer, unassigned) [Example 4], the half-maximal inhibitory concentration (IC50) was 380 nM. On the same count and under the same terms, as for `CN(C)CCC(=O)N1CCC(C2c3ncc(Br)cc3CCc3cc(Cl)cc(Cl)c32)CC1` (single isomer, unassigned) [Example 5], the figure is 56 nM; as for `CN(C)CCCCC(=O)N1CCC(C2c3ncc(Br)cc3CCc3cc(Cl)cc(Cl)c32)CC1` (single isomer, unassigned) [Example 7], 22 nM; as for `CCN(CC)CCC(=O)N1CCC(C2c3ncc(Br)cc3CCc3cc(Cl)cc(Cl)c32)CC1` (single isomer, unassigned) [Example 8], 14 nM.

As to `O=C(CCN1CCCCC1)N1CCC(C2c3ncc(Br)cc3CCc3cc(Cl)cc(Cl)c32)CC1` (single isomer, unassigned) [Example 9], the IC50 amounted to 6 nM.

`O=C(CCN1C(=O)CCC1=O)N1CCC(C2c3ncc(Br)cc3CCc3cc(Cl)cc(Cl)c32)CC1` (single isomer, unassigned) [Example 11]: the half-inhibitory concentration (IC50) was 76 nM. In the case of `NC(=O)CCC(=O)N1CCC(C2c3ncc(Br)cc3CCc3cc(Cl)cc(Cl)c32)CC1` (single isomer, unassigned) [Example 12], the 50% inhibitory concentration (IC50) was determined as 61 nM.

Turning to `CC(=O)NCCCC(=O)N1CCC(C2c3ncc(Br)cc3CCc3cc(Cl)cc(Cl)c32)CC1` (single isomer, unassigned) [Example 15], the IC50 was 63 nM. Still for that read-out and setting: in the case of `O=C(NCCCC(=O)N1CCC(C2c3ncc(Br)cc3CCc3cc(Cl)cc(Cl)c32)CC1)Nc1ccccc1` (single isomer, unassigned) [Example 16] it was more than 100 nM; in that of `O=C(CCCC(=O)N1CCC(C2c3ncc(Br)cc3CCc3cc(Cl)cc(Cl)c32)CC1)Nc1cccnc1` (single isomer, unassigned) [Example 17], approximately 100 nM; in that of `O=C(CCCCCN1C(=O)C=CC1=O)N1CCC(C2c3ncc(Br)cc3CCc3cc(Cl)cc(Cl)c32)CC1` (single isomer, unassigned) [Example 23], 620 nM. The same measure, in the same setting: as for `CC(C)(C)OC(=O)NCC(=O)N1CCC(C2c3ncc(Br)cc3CCc3cc(Cl)cc(Cl)c32)CC1` (single isomer, unassigned) [Example 26], the figure is 540 nM. Still for that read-out and setting: in the case of `NC(=O)N1CCC(C2c3ncc(Br)cc3CCc3cc(Cl)cc(Cl)c32)CC1` (single isomer, unassigned; (+)) [Example 1, (+)-4-(3-BROMO-8,10-DICHLORO-6,11-DIHYDRO-5H-BENZO[5,6]CYCLOHEPTA[1,2-b]PYRIDIN-11-YL)-1-PIPERIDINE CARBOXAMIDE, reference compound] it was 390 nM; in that of `NCC(=O)N1CCC(C2c3ncc(Br)cc3CCc3cc(Cl)cc(Cl)c32)CC1` (single isomer, unassigned; (+)) [Example 3, (+)-1-(AMINOACETYL)-4-(3-BROMO-8,10-DICHLORO-6,11-DIHYDRO-5H-BENZO[5,6]CYCLO-HEPTA[1,2-b]PYRIDIN-11-YL) PIPERIDINE], 1100 nM; in that of `NCCCC(=O)N1CCC(C2c3ncc(Br)cc3CCc3cc(Cl)cc(Cl)c32)CC1` (single isomer, unassigned; (+)) [Example 27, (+)-1-(4-AMINO-1-OXOBUTYL)-4-(3-BROMO-8,10-DICHLORO-6,11-DIHYDRO-5H-BENZO[5,6]CYCLO-HEPTA[1,2-b]PYRIDIN-11-YL) PIPERIDINE], 130 nM. For the compound `NC(=O)NCCCC(=O)N1CCC(C2c3ncc(Br)cc3CCc3cc(Cl)cc(Cl)c32)CC1` (single isomer, unassigned; (+)) [Example 31], the half-inhibitory concentration (IC50) came to 58 nM. Regarding `CCOC(=O)CC(=O)N1CCC([C@H]2c3ncc(Br)cc3CCc3cc(Cl)cc(Br)c32)CC1` [Example 45, (+)-ETHYL 4-(3,10-DIBROMO-8-CHLORO-6,11-DIHYDRO-5H-BENZO[5,6]CYCLO-HEPTA[1,2-b]PYRIDIN-11(R)-YL)-BETA-OXO-1-PIPERIDININE PROPANOATE], the 50% inhibitory concentration (IC50) stood at 28 nM.

For the compound `NC(=O)CC(=O)N1CCC([C@H]2c3ncc(Br)cc3CCc3cc(Cl)cc(Br)c32)CC1` [Example 47, 4-(3,10-DIBROMO-8-CHLORO-6,11-DIHYDRO-5H-BENZO[5,6]CYCLO-HEPTA[1,2-b]PYRIDIN-1(R)-YL)-BETA-OXO-1-PIPERIDININE PROPANAMIDE], the half-maximal inhibitory concentration (IC50) is 68 nM.

Staying with this assay, now noted: read-out: FPT IC50; FPT INHIBITION
For `O=C(O)CC(=O)N1CCC([C@H]2c3ncc(Br)cc3CCc3cc(Cl)cc(Br)c32)CC1` [Example 46, (+)-SODIUM 4-(3,10-DIBROMO-8-CHLORO-6,11-DIHYDRO-5H-BENZO[5,6]CYCLO-HEPTA[1,2-b]PYRIDIN-11(R)-YL)-BETA-OXO-1-PI[…]], the IC50 came to 78 nM. Regarding `COC(=O)CCC(=O)N1CCC([C@H]2c3ncc(Br)cc3CCc3cc(Cl)cc(Br)c32)CC1` [Example 48, (+)-METHYL 4-(3,10-DIBROMO-8-CHLORO-6,11-DIHYDRO-5H-BENZO[5,6]CYCLO-HEPTA[1,2-b]PYRIDIN-11(R)-YL)-GAMMA-OXO-1-PI[…]], the IC50 is 9 nM. Still for that read-out and setting: as for `O=C(O)CCC(=O)N1CCC([C@H]2c3ncc(Br)cc3CCc3cc(Cl)cc(Br)c32)CC1` [Example 49, (+)-SODIUM 4-(3,10-DIBROMO-8-CHLORO-6,11-DIHYDRO-5H-BENZO[5,6]CYCLO-HEPTA[1,2-b]PYRIDIN-11(R)-YL)-GAMMA-OXO-1-PI[…]], the figure is 270 nM.

Still in this assay, the particulars now being: read-out: FPT inhibition (percent inhibition).
On to `O=C(CCCN1C(=O)c2ccncc2C1=O)N1CCC(C2c3ncc(Br)cc3CCc3cc(Cl)cc(Cl)c32)CC1` (single isomer, unassigned) [Example 33, 4-(8,10-DICHLORO-3-BROMO-6,11-DIHYDRO-5H-BENZO[5,6]CYCLO-HEPTA[1,2-b]PYRIDIN-11-YL)-1-[4-(1,3-DIHYDRO-1,3-DIOXO-2H-PYRROLO-[3,4c]-PYRIDINE-2-YL)-1-OXOBUTYL]PIPERIDINE], for which the inhibition at 0.0934 µM turned out to be 38.7%.
